Tests used:
TNF-α = TNF-α secretion from activated PBMCs, ELISA; format: cell-based, human; details: 1-day pretreatment, 5th day of MLR
Description: To better characterize the effect of AD2900 on activated PBMCs, the influence of AD2900 on apoptosis and cytokine secretion was tested. After 5 days of MLR, the cells were collected for apoptosis evaluation, while the supernatant was collected for ELISA test. Apoptosis was induced on the activated PBMCs only at higher concentrations of AD2900, above 10 μM (Figure 1C). Therefore, only a small part of the effect of AD2900 on the suppression of lymphocytic proliferation might be attributed to apoptosis. AD2900-induced inhibition of proliferation was accompanied by a reduced level of IFN-γ concentrations in the supernatant (Figure 1D).
Human PBLs were collected from human whole blood collected from healthy donors. Subsequently, the cells were centrifuged on a Ficoll-Paque gradient (Fresenius Kabi Norge AS, Oslo, Norway) and were isolated from the interphase layer. For the human MLR experiment, PBMCs from one healthy donor were pretreated for 1 day with AD2900, AD2730, AD2750, YZ297, YZ158, FTY720, or SEW2871. […] For the thymidine incorporation assay, after 4 days of co-culture, cells were pulsed with ^3H-thymidine at 1 μCi (0.037MBq) per well (PerkinElmer, MA, USA) for 16 additional hours and then harvested onto glass-fiber filters. ^3H-thymidine incorporation was measured using Top Count. […]

non-activated PBMCs = assay: Proliferation of non-activated PBMCs, [3H] thymidine; format: cell-based, human; details: different concentrations

CCCCCCCCCCCCCCCCNC(CO)(CO)CO [AD2900]
TNF-α concentration in the culture media (TNF-α): not influenced | influence on the proliferation of non-activated PBMCs (non-activated PBMCs): no significant differences

From publication PMC5581131, “The novel sphingosine-1-phosphate receptors antagonist AD2900 affects lymphocyte activation and inhibits T-cell entry into the lymph nodes” (Oncotarget, 2017)
